Source: PMC3467217, “A Potent Class of GPR40 Full Agonists Engages the EnteroInsular Axis to Promote Glucose Control in Rodents” (PLoS ONE, 2012)

How the values were obtained:
GPR40 [1] = molecular target: T1, GPR40 (Homo sapiens, UniProt O14842); assay: Aequorin Ca2+ flux assay in CHO cell line stably expressing GPR40; format: cell-based; details: CHO-GPR40 stable cell line
T1 construct: expressed in transfected cells; host or cells: CHO cell line stably expressing GPR40 and aequorin
Description: Since GPR40 agonists with greater intrinsic activity may have improved anti-diabetic properties, we focused our efforts to discover potent synthetic full agonists.
(§1) GPR40 aequorin, plasmid titration, and inositol phosphate assays were performed as described. For aequorin assays, in addition to transient transfection of GPR40 into CHO cells, a CHO cell line stably expressing both GPR40 and aequorin was generated. GLUTag cells were obtained under a license from Dr. Daniel Drucker, University of Toronto. Competition binding experiments were performed using membranes prepared from A9_GPR40 cells. […] Competition binding assays were carried out in 20 mM Hepes pH 7.5, 5 mM MgCl2, 100 mM NaCl and 0.1% (w/v) free fatty acid BSA and bound radioligand was collected on 96-well GF/C filter plates.

GPR40 [2] = molecular target: T1, GPR40; assay: Inositol phosphate accumulation assay in A9 cells stably expressing GPR40 (A9_GPR40); format: cell-based; details: inositol phosphate assay
Description: as §1
(A) Structure of selected GPR40 agonists. (B) GPR40 agonists were tested in parallel in vitro in an inositol phosphate accumulation assay in A9 cells stably expressing GPR40. (TIF) Click here for additional data file.

GPR43 (FFAR2) = molecular target: T2, GPR43 (FFAR2) (Homo sapiens, UniProt O15552); assay: GPR43 aequorin assay; format: cell-based; details: up to 10 µM
T2 construct: expressed in transfected cells
T2 sequence (O15552 whole entry, species assumed): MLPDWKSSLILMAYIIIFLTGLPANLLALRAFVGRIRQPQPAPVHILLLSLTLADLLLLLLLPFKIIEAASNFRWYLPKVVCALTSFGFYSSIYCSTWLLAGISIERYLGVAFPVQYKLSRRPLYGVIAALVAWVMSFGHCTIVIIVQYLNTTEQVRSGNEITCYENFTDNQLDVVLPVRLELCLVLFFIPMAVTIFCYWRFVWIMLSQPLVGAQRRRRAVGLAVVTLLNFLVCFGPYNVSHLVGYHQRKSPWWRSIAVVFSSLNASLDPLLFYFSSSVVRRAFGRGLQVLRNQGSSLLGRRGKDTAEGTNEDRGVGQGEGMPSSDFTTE
From the text: (§2) (A) GPR41 (FFAR3) aequorin assay. GPR41 was force coupled to the calcium signaling pathway by co-transfecting the cells with Gqmyri5. (B) GPR43 (FFAR2) aequorin assay. The short chain fatty acid propionate acts as a natural agonist ligand for GPR41 and GPR43. (C) GPR120 aequorin assay. The unsaturated fatty acids α-LNN and DHA act as natural agonist ligands for GPR120. (D) PPAR-gamma luciferase assay using the thiazolidinedione rosiglitazone as a positive control. […] (TIF) Click here for additional data file.

GPR120 = molecular target: T3, GPR120 (Homo sapiens, UniProt Q5NUL3); assay: GPR120 aequorin assay; format: cell-based; details: weak activity
T3 construct: expressed in transfected cells
T3 sequence (Q5NUL3 whole entry, species assumed): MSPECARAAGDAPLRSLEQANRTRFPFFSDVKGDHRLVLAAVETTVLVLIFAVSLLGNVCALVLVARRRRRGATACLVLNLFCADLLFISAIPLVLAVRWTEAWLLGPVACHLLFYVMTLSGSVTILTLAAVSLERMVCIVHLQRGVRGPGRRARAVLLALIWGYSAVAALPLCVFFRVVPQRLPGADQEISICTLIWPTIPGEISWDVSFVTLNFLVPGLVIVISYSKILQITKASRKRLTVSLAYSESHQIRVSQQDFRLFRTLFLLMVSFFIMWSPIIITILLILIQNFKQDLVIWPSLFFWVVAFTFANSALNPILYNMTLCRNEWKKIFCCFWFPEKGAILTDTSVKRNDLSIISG
From the text: as §2

PPAR delta = PPAR delta (Homo sapiens, UniProt Q03181); assay: PPAR-delta luciferase reporter assay; format: cell-based; details: concentrations up to 10 µM
Sequence of PPAR delta (Q03181 whole entry): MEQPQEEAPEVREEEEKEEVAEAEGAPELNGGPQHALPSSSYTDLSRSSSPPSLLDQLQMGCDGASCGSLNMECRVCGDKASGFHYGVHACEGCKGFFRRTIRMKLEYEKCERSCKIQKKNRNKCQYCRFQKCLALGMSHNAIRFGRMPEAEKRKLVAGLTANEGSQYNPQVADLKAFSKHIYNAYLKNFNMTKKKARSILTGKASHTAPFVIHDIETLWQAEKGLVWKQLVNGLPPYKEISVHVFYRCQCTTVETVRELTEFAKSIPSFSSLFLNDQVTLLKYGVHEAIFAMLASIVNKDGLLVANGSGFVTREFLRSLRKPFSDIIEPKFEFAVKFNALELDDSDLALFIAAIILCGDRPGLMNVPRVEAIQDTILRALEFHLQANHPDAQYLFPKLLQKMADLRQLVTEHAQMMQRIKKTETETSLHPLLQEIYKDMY

PPAR gamma = PPAR gamma (Homo sapiens, UniProt P37231); assay: PPAR-gamma luciferase assay; format: cell-based; details: concentrations up to 10 µM
Sequence of PPAR gamma (P37231 whole entry): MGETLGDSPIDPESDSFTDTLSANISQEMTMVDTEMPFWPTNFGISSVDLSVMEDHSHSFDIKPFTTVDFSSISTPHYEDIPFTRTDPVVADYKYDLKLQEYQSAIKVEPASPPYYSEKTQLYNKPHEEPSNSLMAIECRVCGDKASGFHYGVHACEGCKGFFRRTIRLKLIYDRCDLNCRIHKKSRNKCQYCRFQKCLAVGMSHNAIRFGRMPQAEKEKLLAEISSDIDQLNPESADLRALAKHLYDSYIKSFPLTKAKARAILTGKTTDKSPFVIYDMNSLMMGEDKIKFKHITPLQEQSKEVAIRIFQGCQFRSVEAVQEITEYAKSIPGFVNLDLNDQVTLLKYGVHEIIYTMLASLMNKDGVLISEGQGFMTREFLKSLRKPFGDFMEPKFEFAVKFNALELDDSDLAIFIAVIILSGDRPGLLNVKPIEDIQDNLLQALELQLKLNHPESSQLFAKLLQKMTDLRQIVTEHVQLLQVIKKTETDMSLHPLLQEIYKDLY
From the text: as §2

[3] = test system: fetal rat intestinal cells; assay: GLP-1 secretion assay with fetal rat intestinal cells; format: cell-based; details: 1 hour
From the text: Increased GLP-1 and GIP would be expected to have additional benefits in type 2 diabetics. […] We tested for potential effects on incretin secretion in vitro by using cells isolated from fetal rat intestines.
Mouse islets were isolated and tested for stimulation of GSIS as described. Human islets were purchased from Prodo labs or were obtained from the National Institutes of Health and Juvenile Diabetes Research Foundation supported Islet Cell Resource Consortium (http://icr.coh.org). Islet inositol phosphate assays were performed on islets cells that had been dispersed with trypsin. 10,000 islet cells were plated/well of a 96-well plate and were loaded with ^3H-myo-inositol (0.5 µCi/well) in RPMI overnight prior to treatment. The next day, response to different stimuli was tested in HBSS containing 10 mM LiCl and 0.1% HSA (w/v) for 1 hour at 37°C. Accumulated ^3H-inositol phosphate was measured after capture to SPA beads. Islet perifusion experiments were performed on mouse islets loaded into a Brandel Suprafusion system. Twenty islets were size-matched and loaded per perifusion chamber. […] Insulin was measured using an insulin ELISA kit (Alpco). […] GLP-1 and GIP1 secreted into the media was measured using ELISA kits specific for GLP-1 (Linco) or GIP (Millipore).

[4] = Unbound plasma drug concentration in HF/STZ mice; format: in vivo; details: C57BL/6j, mouse, 100 mg/kg oral, 1-hour post drug administration, by MS, read-out: free drug level in plasma
mouse GPR40 = mouse GPR40 (Mus musculus, UniProt Q76JU9); assay: Mouse GPR40 inositol phosphate accumulation assay; format: cell-based
Sequence of mouse GPR40 (Q76JU9 whole entry): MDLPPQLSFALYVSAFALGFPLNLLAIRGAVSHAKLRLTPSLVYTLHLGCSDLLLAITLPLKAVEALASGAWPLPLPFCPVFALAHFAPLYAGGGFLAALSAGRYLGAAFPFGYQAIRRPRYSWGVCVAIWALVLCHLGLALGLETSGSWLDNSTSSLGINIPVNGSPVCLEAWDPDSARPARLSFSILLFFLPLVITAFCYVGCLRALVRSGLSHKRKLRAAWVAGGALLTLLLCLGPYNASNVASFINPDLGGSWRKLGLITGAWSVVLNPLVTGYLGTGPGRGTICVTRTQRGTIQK
Description: as §1

HF/STZ mice = assay: Single oral dose without glucose challenge in HF/STZ mice: GLP-1, insulin, glucose, GIP; format: in vivo, mouse; details: HF/STZ mice, single oral dose
Description: The increase in insulin secretion by GPR40 agonists is due to direct stimulation of GPR40 receptors on pancreatic β-cells, but may also be derived from stimulation of the gut peptides GLP-1 and GIP, which subsequently act on the GLP-1 and GIP G protein-coupled receptors found on pancreatic β-cells. […] No glucose challenge was performed in order to isolate the effects of the compounds alone.
(§3) All procedures on animals were approved by the Amgen San Francisco Institutional Animal Care and Use Committee (approved protocols #11–04 and #2007–00106). The Amgen San Francisco vivarium is an AAALAC accredited facility. Animals were housed under a 12-h light, 12-h dark cycle (lights-on 0600 h and lights-off 1800 h) and were allowed ad libidum access to chow and water. The HF/STZ mice were established as previously described. Briefly, C57BL/6j mice (Jackson labs) at 4 weeks of age were fed a high-fat diet (BioServ S1850, 35% fat) for 3-weeks and then injected with 95 mg/kg streptozotocin (Sigma) ip to induce beta cell dysfunction. The animals continued on the same high fat diet for 3–6 additional weeks. Animals were then randomized into treatment groups based on fasting blood glucose and insulin measures. NONcNZO10/LtJ (RCS10) male mice (Jackson labs) were used at 12-weeks of age and randomized for treatment based on fasting glucose levels. For OGTT experiments, drugs were formulated in 1% HPMC, 10% HPbCD, 1% Tween-80 and dosed via oral gavage. Glucose was administered at 2 g/kg 1-hour post drug dose by oral gavage.

[5] = test system: wild type and GPR40 knockout mice; assay: OGTT and GLP-1 secretion in wild type and GPR40 null mice; format: in vivo, mouse; details: wild type mice
Description: as §3
For all glucose tolerance tests, glucose and insulin measurements were taken from tail vein samples at various time-points. Blood glucose values were measured on an Accu-Chek glucometer (Roche Diagnostics), while insulin levels were determined using an ELISA (Alpco).

T1 sequence (O14842 whole entry): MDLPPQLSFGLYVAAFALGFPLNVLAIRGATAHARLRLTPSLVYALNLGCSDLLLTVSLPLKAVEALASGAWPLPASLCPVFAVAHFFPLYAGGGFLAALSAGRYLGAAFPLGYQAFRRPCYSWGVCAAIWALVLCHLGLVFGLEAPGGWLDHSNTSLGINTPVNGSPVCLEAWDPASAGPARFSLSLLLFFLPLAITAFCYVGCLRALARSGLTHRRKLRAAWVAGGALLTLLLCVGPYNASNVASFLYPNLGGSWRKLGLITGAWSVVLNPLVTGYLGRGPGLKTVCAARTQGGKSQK

- EC50 (GPR40 [1]): 160 ± 10 nM
- Emax (GPR40 [1]; compared to natural free fatty acid ligands, read-out: Emax (efficacy)): 100%
- intrinsic activity, fold greater than AMG 837 (GPR40 [2]): ~2 fold
- EC50 (GPR40 [2]; 1-hour accumulation, read-out: Half-maximal potency): 13.1 ± 1.1 nM
- activation of GPR43 (FFAR2) (GPR43 (FFAR2)): did not activate
- EC50 (GPR120): ~5000 nM
- activation of PPAR delta (PPAR delta): did not activate
- activation of PPAR gamma (PPAR gamma): did not activate
- concentration at 1 h [4]: 363 ± 48 nM
- EC50 (mouse GPR40): 12.9 ± 1.4 nM
Structure (SMILES): COc1ccc(F)c(-c2ccc(COc3cccc([C@@H](CC(=O)O)C4CC4)c3)cc2C2=CCCC2(C)C)c1 [AM-1638]
- GLP-1 release in vitro [3]: could stimulate GLP-1 release
- GIP secretion (HF/STZ mice): stimulated secretion of GIP
- blood glucose levels (HF/STZ mice; no glucose challenge): stabilized blood glucose levels
- plasma GLP-1 and insulin levels (HF/STZ mice; no glucose challenge, compared with AMG 837): markedly greater increase
- improvement in pre- and post-challenge glucose levels ([5]; OGTT, single oral dose): evident in wild type
- plasma GLP-1 levels ([5]; single dose 100 mg/kg): elicited an increase
